Experimental data as given in PMC8878047 (Pharmaceutics, 2022).
Like-named read-outs stand apart in the source and are kept apart here.

Legend:
[1] = Protocol: All tests were conducted in the animal experimental center of Guangxi Medical University. Preliminary experiments were needed before starting official tests. […] Groups of mice (n = 10 per group, half male and half female) received different doses of the tested compounds by gavage at the same single dose of drug solution, which was uniformed to be […] (drug solution)/10 g, but containing different concentration of tested drugs. […] We compared these mice with the control group in which the mice were not given drugs, according to the pre-experimental procedure. We closely observed the mice for 6 h after the gavage for signs of toxicity and mortality. As soon as death occurred among the maximum-dose group, we conducted an autopsy and took samples from the main organs for histopathological examination. In addition, we monitored all of the tested mice for 2 weeks to record their weight and mortality.
[2] = tested on: E. coli; test: Quasi-clinical trial on E. coli-infected AA broilers (drug-mixed feeding); conditions: AA broilers
Protocol: (§1) Then, broilers were randomly and equally divided into five different groups and marked as five groups. […] Note that the daily drug-mixed feeding ratio (g drug/kg feed) was indicated for the first 4 h every day, and unmedicated feed then followed. In addition, E. coli strains for the infection of chicken was supplied as a freeze-dried powder. They were revived and cultured according to the standard procedures. The strain was inoculated into a liquid medium and cultured in a 37 °C incubator for 6–8 h. We detected the concentration of the bacterial liquid to be 2.8 × 10^8 CFU/mL as the pathogenic concentration. Finally, all of the chickens except the healthy control group were intramuscularly injected with 0.5 mL of pathogenic bacteria, and all chickens were fasted for 4 h. After successfully simulating the bacterial infection of the chickens, the drug-mixed feeding chickens were continuously fed for 6 d. During this time, we observed their behavioral habits, mortality, and recovery rates.

[3] = tested on: neutrophil cluster aggregation; test: CuSO4-induced inflammation model in Tg(mpx:eGFP) zebrafish; conditions: 10 μM CuSO4 40 min, Tg(mpx:eGFP) 3 dpf
[4] = tested on: E. coli; test: Quasi-clinical trial on E. coli-infected 817 broilers (drug-mixed feeding); conditions: 817 broilers
Protocol: as §1

[5] = tested on: wild type AB strain zebrafish; conditions: 30 embryos per well
Protocol: Zebrafish were incubated and grown in the Joint Laboratory established by Shandong Rui’ying Pharmaceutical Group (Heze, China) and China Pharmaceutical University. Both the Wild-type AB (Danio rerio) and Tg(mpx:eGFP) zebrafish strains were maintained under the guidance of the standard procedures of The Zebrafish Book. […] Then the zebrafish were allowed to naturally mate and spawn the next morning. The normally born embryos were then collected after 1 h and kept in an incubating system at 28 °C. The 6 hpf (hour post fertilization) embryos were transferred into a 6-well plate exposed to 5 mL of egg water, in which 30 embryos were in each well.

[6] = tested on: H2O2-induced ROS production; test: H2O2-induced oxidative stress model in zebrafish (DCFH-DA); conditions: 48 h pre-treatment, H2O2 1.0 mM 4 h, H2O2-induced 17,250, control 590
[7] = Pharmacokinetic study in plasma after oral administration (HPLC-MS); conditions: SD rats, plasma, EFX 10 mg/kg, EFX-Ca 12 mg/kg
[8] = 0.01 μM medicated bath, 120 hpf

CCN1CCN(c2cc3c(cc2F)c(=O)c(C(=O)O)cn3C2CC2)CC1 [EFX, enrofloxacin, reference compound]
Body Weight (g, x¯ ± SD) ([1]; 2000 mg/kg single gavage, Day-0): 18.35 ± 1.87 g | Body Weight (g, x¯ ± SD) ([1]; 2000 mg/kg single gavage, Day-1): 20.21 ± 2.06 g | Body Weight (g, x¯ ± SD) ([1]; 2000 mg/kg single gavage, Day-4): 25.19 ± 1.81 g | Body Weight (g, x¯ ± SD) ([1]; 2000 mg/kg single gavage, Day-7): 28.89 ± 1.99 g | Body Weight (g, x¯ ± SD) ([1]; 2000 mg/kg single gavage, Day-14): 36.93 ± 3.07 g | Body Weight (g, x¯ ± SD) ([1]; 3031 mg/kg single gavage, Day-0): 18.40 ± 1.78 g | Body Weight (g, x¯ ± SD) ([1]; 3031 mg/kg single gavage, Day-1): 19.20 ± 2.18 g | Body Weight (g, x¯ ± SD) ([1]; 3031 mg/kg single gavage, Day-4): 24.83 ± 3.08 g | Body Weight (g, x¯ ± SD) ([1]; 3031 mg/kg single gavage, Day-7): 29.17 ± 2.51 g | Body Weight (g, x¯ ± SD) ([1]; 3031 mg/kg single gavage, Day-14): 33.20 ± 4.46 g | Body Weight (g, x¯ ± SD) ([1]; 4595 mg/kg single gavage, Day-0): 18.67 ± 1.05 g | Body Weight (g, x¯ ± SD) ([1]; 4595 mg/kg single gavage, Day-1): 19.14 ± 0.96 g | Body Weight (g, x¯ ± SD) ([1]; 4595 mg/kg single gavage, Day-4): 23.54 ± 1.44 g | Body Weight (g, x¯ ± SD) ([1]; 4595 mg/kg single gavage, Day-7): 28.20 ± 1.52 g | Body Weight (g, x¯ ± SD) ([1]; 4595 mg/kg single gavage, Day-14): 33.96 ± 2.53 g | Body Weight (g, x¯ ± SD) ([1]; 6964 mg/kg single gavage, Day-0): 18.59 ± 1.34 g | Body Weight (g, x¯ ± SD) ([1]; 6964 mg/kg single gavage, Day-1): 19.68 ± 1.06 g | Body Weight (g, x¯ ± SD) ([1]; 6964 mg/kg single gavage, Day-4): 23.85 ± 1.88 g | Body Weight (g, x¯ ± SD) ([1]; 6964 mg/kg single gavage, Day-7): 27.98 ± 3.40 g | Body Weight (g, x¯ ± SD) ([1]; 6964 mg/kg single gavage, Day-14): 36.13 ± 5.35 g | Body Weight (g, x¯ ± SD) ([1]; 16,000 mg/kg single gavage, Day-0): 18.86 ± 1.03 g | Body Weight (g, x¯ ± SD) ([1]; 16,000 mg/kg single gavage, Day-1): 18.55 ± 1.70 g | Body Weight (g, x¯ ± SD) ([1]; 16,000 mg/kg single gavage, Day-7): 24.35 ± 2.63 g | Body Weight (g, x¯ ± SD) ([1]; 16,000 mg/kg single gavage, Day-14): 33.20 ± 4.00 g | Average Final Weight ([2]; EFX single dosage 11 g + 1.5 kg feed): 1880 ± 113 g | Average Weight Gain ([2]; EFX single dosage 11 g + 1.5 kg feed, Table 7): 380 | Average Increment of Weight ([2]; EFX single dosage 11 g + 1.5 kg feed, Table 8): 250 g | Cure Rate (%) ([2]; EFX single dosage 11 g drug (5% solution) + 1.5 kg feed/4 h, 6 d): 62% | Survival Number ([2]; EFX single dosage 11 g drug (5% solution) + 1.5 kg feed/4 h, 6 d, 50 per group): 31 | CuSO4-induced neutrophil aggregation ([3]; 0.1 μM pre-incubation 1 h): still maintained obvious clustering status | CuSO4-induced neutrophil aggregation ([3]; 1 μM pre-incubation 1 h): partial aggregations of the neutrophils could be observed | Average Final Weight ([4]; EFX single dosage 11 g + 0.75 kg feed): 1030 ± 74 g | Average Weight Gain ([4]; EFX single dosage 11 g + 0.75 kg feed, Table 7): 100 | Average Increment of Weight ([4]; EFX single dosage 11 g + 0.75 kg feed, Table 8): 140 g | Cure Rate (%) ([4]; EFX single dosage 11 g drug (5% solution) + 0.75 kg feed/4 h, 6 d): 64% | Survival Number ([4]; EFX single dosage 11 g drug (5% solution) + 0.75 kg feed/4 h, 6 d, 50 per group): 32 | statistical death of the tested zebrafish ([5]; 0.01 μM medicated bath, 24 hpf): 6 | statistical survival of the tested zebrafish ([5]; 0.01 μM medicated bath, 24 hpf): 24 | statistical death of the tested zebrafish ([5]; 0.01 μM medicated bath, 48 hpf): 6 | statistical survival of the tested zebrafish ([5]; 0.01 μM medicated bath, 48 hpf): 24 | statistical death of the tested zebrafish ([5]; 0.01 μM medicated bath, 72 hpf): 6 | statistical survival of the tested zebrafish ([5]; 0.01 μM medicated bath, 72 hpf): 24 | statistical death of the tested zebrafish ([5]; 0.01 μM medicated bath, 96 hpf): 6 | statistical survival of the tested zebrafish ([5]; 0.01 μM medicated bath, 96 hpf): 24 | statistical death of the tested zebrafish [5, 8]: 6 | statistical survival of the tested zebrafish [5, 8]: 24 | statistical death of the tested zebrafish ([5]; 0.1 μM medicated bath, 24 hpf): 4 | statistical survival of the tested zebrafish ([5]; 0.1 μM medicated bath, 24 hpf): 26 | statistical death of the tested zebrafish ([5]; 0.1 μM medicated bath, 48 hpf): 4 | statistical survival of the tested zebrafish ([5]; 0.1 μM medicated bath, 48 hpf): 26 | statistical death of the tested zebrafish ([5]; 0.1 μM medicated bath, 72 hpf): 4 | statistical survival of the tested zebrafish ([5]; 0.1 μM medicated bath, 72 hpf): 26 | statistical death of the tested zebrafish ([5]; 0.1 μM medicated bath, 96 hpf): 4 | statistical survival of the tested zebrafish ([5]; 0.1 μM medicated bath, 96 hpf): 26 | statistical death of the tested zebrafish ([5]; 0.1 μM medicated bath, 120 hpf): 4 | statistical survival of the tested zebrafish ([5]; 0.1 μM medicated bath, 120 hpf): 26 | statistical death of the tested zebrafish ([5]; 1 μM medicated bath, 24 hpf): 2 | statistical survival of the tested zebrafish ([5]; 1 μM medicated bath, 24 hpf): 28 | statistical death of the tested zebrafish ([5]; 1 μM medicated bath, 48 hpf): 2 | statistical survival of the tested zebrafish ([5]; 1 μM medicated bath, 48 hpf): 28 | statistical death of the tested zebrafish ([5]; 1 μM medicated bath, 72 hpf): 2 | statistical survival of the tested zebrafish ([5]; 1 μM medicated bath, 72 hpf): 28 | statistical death of the tested zebrafish ([5]; 1 μM medicated bath, 96 hpf): 2 | statistical survival of the tested zebrafish ([5]; 1 μM medicated bath, 96 hpf): 28 | statistical death of the tested zebrafish ([5]; 1 μM medicated bath, 120 hpf): 2 | statistical survival of the tested zebrafish ([5]; 1 μM medicated bath, 120 hpf): 28 | statistical death of the tested zebrafish ([5]; 10 μM medicated bath, 24 hpf): 2 | statistical survival of the tested zebrafish ([5]; 10 μM medicated bath, 24 hpf): 28 | statistical death of the tested zebrafish ([5]; 10 μM medicated bath, 48 hpf): 2 | statistical survival of the tested zebrafish ([5]; 10 μM medicated bath, 48 hpf): 28 | statistical death of the tested zebrafish ([5]; 10 μM medicated bath, 72 hpf): 2 | statistical survival of the tested zebrafish ([5]; 10 μM medicated bath, 72 hpf): 28 | statistical death of the tested zebrafish ([5]; 10 μM medicated bath, 96 hpf): 2 | statistical survival of the tested zebrafish ([5]; 10 μM medicated bath, 96 hpf): 28 | statistical death of the tested zebrafish ([5]; 10 μM medicated bath, 120 hpf): 2 | statistical survival of the tested zebrafish ([5]; 10 μM medicated bath, 120 hpf): 28 | statistical death of the tested zebrafish ([5]; 20 μM medicated bath, 24 hpf): 4 | statistical survival of the tested zebrafish ([5]; 20 μM medicated bath, 24 hpf): 26 | statistical death of the tested zebrafish ([5]; 20 μM medicated bath, 48 hpf): 4 | statistical survival of the tested zebrafish ([5]; 20 μM medicated bath, 48 hpf): 26 | statistical death of the tested zebrafish ([5]; 20 μM medicated bath, 72 hpf): 4 | statistical survival of the tested zebrafish ([5]; 20 μM medicated bath, 72 hpf): 26 | statistical death of the tested zebrafish ([5]; 20 μM medicated bath, 96 hpf): 4 | statistical survival of the tested zebrafish ([5]; 20 μM medicated bath, 96 hpf): 26 | statistical death of the tested zebrafish ([5]; 20 μM medicated bath, 120 hpf): 4 | statistical survival of the tested zebrafish ([5]; 20 μM medicated bath, 120 hpf): 26 | Average IOD (integrated optical density) of green fluorescence ([6]; 0.01 μM): 970 a.u. | Average IOD (integrated optical density) of green fluorescence ([6]; 0.1 μM): 772 a.u. | Average IOD (integrated optical density) of green fluorescence ([6]; 1 μM): 848 a.u. | Ke [7]: 0.28 | t 1/2β [7]: 2.43 H
